Data reported in patent publication US10413535B2, “Pharmaceutical compositions comprising an integrin ALPHA4 antagonist for use in treating ocular inflammatory conditions” (AXEROVISION, INC., priority 2015, dated 2019).

Assays:
Human α4β1 = biological target: T1, Human α4β1 (Homo sapiens, UniProt P05556+P13612); experiment: J6 saturation binding assay (filtration) with [3H]GW559090; conditions: [3H]GW559090, J6 cells; geometric mean and 95% CL, 4 experiments
T1 construct: characterized in human J6 cells which express VLA-4; endogenous in cells; host or cells: Jurkat J6 cells (human lymphoblast cell line)
Procedure: (§1) Jurkat J6 cells (human lymphoblast cell line) were grown as a suspension culture in RPMI 1640 supplemented with FCS (10%) and glutamine (2 mM). RPMI8866 cells (human B lymphoid cell line) were grown as a suspension culture in RPMI 1640 supplemented with FCS (10%) and glutamine (2 mM). RBL-2H3 cells (rat basophilic cell line) were cultured in Eagle's MEM plus Earles salts supplemented with 2 mM L-glutamine, 1 mM sodium pyruvate, 1× non-essential amino acids, 1 mM Na pyruvate 10% heat inactivated foetal calf serum.
Binding of the compound of formula I was characterized in human J6 cells which express VLA-4. J6 cells were harvested by centrifugation for 5 minutes at 500 g and resuspended in assay buffer (50 mM HEPES, pH 7.5, 100 mM NaCl, 2 mM glucose, 1 mM MnCl2). Each well contained 1×10^6 cells and either 10 μM cold GW559090, to define the NSBs (non-specific binding), or buffer. […] Bound [3H]GW559090 was separated from free by rapid vacuum filtration through pre-soaked Whatman GF/B filters, followed by three washes in ice-cold buffer, scintillant was then added to filter discs and disintegrations per minute measured on a Beckman Scintillation counter. […] GW559090 added for each concentration of the saturation curve was measured by counting disintegrations from a 50 μL aliquot of the label dilution range.

α4β1-VCAM-1 = biological target: T2, α4β1-VCAM-1 (Homo sapiens, UniProt P05556+P13612); experiment: VCAM cell adhesion assay, Jurkat J6 cells; format: cell-based; conditions: J6 cells to VCAM-1; read-out: Inhibition of cell adhesion (IC50)
T2 construct: characterized in human J6 cells which express VLA-4; endogenous in cells; host or cells: Jurkat J6 cells (human lymphoblast cell line)
Procedure: as §1
Polystyrene 96-well microtitre plates were coated with IgG at a concentration of 0.05 mg/mL in bicarbonate buffer for 2 hours at 37° C. The solution was aspirated and the plates washed twice with PBS. The plates were then incubated overnight at 4° C. with a 1:4000 dilution of VCAM-1 of 3% BSA in PBS. Prior to use the VCAM-1 was aspirated and the plates washed twice with PBS.
J6 or RPMI cells (as required) were labelled with the fluorescent dye BCECF-AM (10 μM and 6×10^6 cells/mL) for 10 min at 37° C. before the excess was removed by centrifugation at 500 g for 5 min and the cells resuspended at a cell concentration of 1.2×10^7 cells/mL in HBSS. Equal volumes HBSS containing the compound of formula I (over concentration range 38.1 pM to 10 μM) and cells were added to the VCAM-1 coated plates. […] The plates were counted in a Wallac Viktor.

[1] = tested on: non-α4 integrins, including LFA-1; conditions: cited from earlier work

T1 sequence (P13612 34-1032): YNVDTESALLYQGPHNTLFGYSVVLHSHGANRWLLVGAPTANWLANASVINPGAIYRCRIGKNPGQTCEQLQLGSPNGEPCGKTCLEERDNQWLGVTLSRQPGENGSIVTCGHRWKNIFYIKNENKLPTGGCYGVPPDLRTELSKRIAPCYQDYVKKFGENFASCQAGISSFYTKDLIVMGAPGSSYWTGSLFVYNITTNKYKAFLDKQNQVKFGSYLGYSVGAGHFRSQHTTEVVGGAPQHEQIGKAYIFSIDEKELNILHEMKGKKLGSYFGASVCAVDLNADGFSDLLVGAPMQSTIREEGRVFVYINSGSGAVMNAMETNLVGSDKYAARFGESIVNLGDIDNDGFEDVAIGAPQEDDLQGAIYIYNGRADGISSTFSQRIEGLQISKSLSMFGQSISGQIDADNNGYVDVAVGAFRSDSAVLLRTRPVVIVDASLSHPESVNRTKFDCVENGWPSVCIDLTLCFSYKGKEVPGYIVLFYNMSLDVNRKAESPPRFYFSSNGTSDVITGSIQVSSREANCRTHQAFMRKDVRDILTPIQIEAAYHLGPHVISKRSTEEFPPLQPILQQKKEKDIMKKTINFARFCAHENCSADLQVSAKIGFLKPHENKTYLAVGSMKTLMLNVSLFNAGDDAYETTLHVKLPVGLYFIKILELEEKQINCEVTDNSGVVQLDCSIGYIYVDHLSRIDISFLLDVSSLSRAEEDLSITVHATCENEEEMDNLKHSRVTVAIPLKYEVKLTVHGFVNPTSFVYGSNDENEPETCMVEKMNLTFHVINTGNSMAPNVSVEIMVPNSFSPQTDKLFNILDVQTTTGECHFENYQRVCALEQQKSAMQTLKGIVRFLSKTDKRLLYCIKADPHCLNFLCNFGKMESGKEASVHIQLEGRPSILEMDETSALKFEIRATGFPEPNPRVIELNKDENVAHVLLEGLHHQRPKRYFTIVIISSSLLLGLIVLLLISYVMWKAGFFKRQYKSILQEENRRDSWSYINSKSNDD
T1 sequence (P05556 21-798): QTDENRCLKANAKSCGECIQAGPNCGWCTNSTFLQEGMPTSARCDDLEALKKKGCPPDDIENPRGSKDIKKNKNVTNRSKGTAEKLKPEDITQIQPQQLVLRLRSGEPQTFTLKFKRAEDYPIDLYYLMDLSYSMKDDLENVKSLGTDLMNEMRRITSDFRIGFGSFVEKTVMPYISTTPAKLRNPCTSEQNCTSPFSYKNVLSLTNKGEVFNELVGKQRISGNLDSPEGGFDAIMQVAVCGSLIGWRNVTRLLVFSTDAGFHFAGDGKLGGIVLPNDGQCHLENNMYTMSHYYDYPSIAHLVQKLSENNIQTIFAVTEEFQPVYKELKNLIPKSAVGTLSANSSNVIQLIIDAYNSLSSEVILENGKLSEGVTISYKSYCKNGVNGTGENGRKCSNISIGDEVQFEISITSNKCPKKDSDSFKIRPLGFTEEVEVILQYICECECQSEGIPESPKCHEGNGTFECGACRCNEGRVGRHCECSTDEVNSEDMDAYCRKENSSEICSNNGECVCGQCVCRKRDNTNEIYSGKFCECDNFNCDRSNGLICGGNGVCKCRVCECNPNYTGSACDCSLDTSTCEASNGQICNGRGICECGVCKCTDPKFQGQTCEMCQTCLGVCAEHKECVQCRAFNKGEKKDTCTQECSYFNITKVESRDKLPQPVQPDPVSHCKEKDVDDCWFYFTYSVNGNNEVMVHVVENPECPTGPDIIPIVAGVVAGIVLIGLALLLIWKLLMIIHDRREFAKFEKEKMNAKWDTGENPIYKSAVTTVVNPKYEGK
T2 sequence (P13612 34-1032): as the sequence (P13612 34-1032) above
T2 sequence (P05556 21-798): as the sequence (P05556 21-798) above

## Cc1ccccc1OCC(=O)N[C@@H](CC(C)C)C(=O)N[C@@H](Cc1ccc(OC(=O)N2CCC(C(N)=O)CC2)cc1)C(=O)O [GW559090, (2S)-3-[4-({[4-(Aminocarbonyl)-1-piperidinyl]carbonyl}oxy)phenyl]-2-[((2S)-4-methyl-2-{[2-(2-methylphenoxy)acetyl]amino}pentanoyl)amino]propanoic acid]
Human α4β1
  Kd: 0.19 nM
α4β1-VCAM-1
  IC50: 7.72 nM
[1]
  Selectivity vs. non-α4 integrins: highly selective
